Assay results as given in ChEMBL document CHEMBL1125278, “Novel cerebroprotective agents with central nervous system stimulating activity. 2. Synthesis and pharmacology of the 1-(acylamino)-7-hydroxyindan derivatives” (1991).
Where “and” joins values, the source holds several entries; their conditions need not be identical. Equal entries are not always repeated.

What was measured:
Assay type in all cases: functional
[1] = test system: Mus musculus; assay: Time of recovery of righting reflux (RRT) in seconds was measured after iv administration of 0.625 mg/kg in mice for the promotional effect on recovery from coma.
[2] = test system: Mus musculus; assay: Time of recovery of spontaneous movement (SMT) in seconds was measured after iv administration of 0.625 mg/kg in mice for the promotional effect on recovery from coma.
[3] = test system: Mus musculus; assay: Time of recovery of righting reflux (RRT) in seconds was measured after iv administration of 2.5 mg/kg in mice for the promotional effect on recovery from coma.
[4] = test system: Mus musculus; assay: Compound was tested for the anesthetic effect and the sleeping time (ST) was recorded at a dose of 1 mg/kg administered intraperitoneally.; conditions: route intraperitoneal
[5] = test system: Mus musculus; assay: Compound was tested for the anesthetic effect and the sleeping time (ST) was recorded at a dose of 0.3 mg/kg administered intraperitoneally.; conditions: route intraperitoneal
[6] = test system: Mus musculus; assay: Compound was tested for the anesthetic effect and the sleeping time (ST) was recorded at a dose of 3 mg/kg administered intraperitoneally.; conditions: route intraperitoneal
[7] = test system: Mus musculus; assay: Time of recovery of righting reflux (RRT) in seconds was measured after iv administration of 1.25 mg/kg in mice for the promotional effect on recovery from coma.
[8] = test system: Mus musculus; assay: Antihypoxic effect by the ratio of survival time (SVT) of test mice to that of control group at a dose of 0.3 mg/kg administered intraperitoneally.; conditions: route intraperitoneal
[9] = test system: Mus musculus; assay: Time of recovery of spontaneous movement (SMT) in seconds was measured after iv administration of 2.5 mg/kg in mice for the promotional effect on recovery from coma.
[10] = test system: Mus musculus; assay: Antihypoxic effect by the ratio of survival time (SVT) of test mice to that of control group at a dose of 3 mg/kg administered intraperitoneally.; conditions: route intraperitoneal
[11] = test system: Mus musculus; assay: Antihypoxic effect tested by the ratio of survival time (SVT) of test mice to that of control group, dosed intraperitoneally at 30 mg/kg; conditions: route intraperitoneal
[12] = test system: Mus musculus; assay: Time of recovery of spontaneous movement (SMT) in seconds was measured after iv administration of 1.25 mg/kg in mice for the promotional effect on recovery from coma.
[13] = test system: Mus musculus; assay: Antihypoxic effect by the ratio of survival time (SVT) of test mice to that of control group at a dose of 1 mg/kg administered intraperitoneally.; conditions: route intraperitoneal
[14] = test system: Mus musculus; assay: Time of recovery of righting reflux (RRT) in seconds was measured after administration of 40 mg/kg orally in mice for the promotional effect on recovery from coma.; conditions: route oral
[15] = test system: Mus musculus; assay: Time of recovery of spontaneous movement (SMT) in seconds was measured after administration of 10 mg/kg intraperitoneally in mice for the promotional effect on recovery from coma.; conditions: route intraperitoneal
[16] = test system: Mus musculus; assay: Time of recovery of righting reflux (RRT) in seconds was measured after administration of 100 mg/kg intraperitoneally in mice for the promotional effect on recovery from coma.; conditions: route intraperitoneal
[17] = test system: Mus musculus; assay: Time of recovery of spontaneous movement (SMT) in seconds was measured after administration of 100 mg/kg intraperitoneally in mice for the promotional effect on recovery from coma.; conditions: route intraperitoneal
[18] = test system: Mus musculus; assay: Antihypoxic effect by the ratio of survival time (SVT) of test mice to that of control group at a dose of 10 mg/kg administered intraperitoneally.; conditions: route intraperitoneal
[19] = test system: Mus musculus; assay: Time of recovery of righting reflux (RRT) in seconds was measured after administration of 10 mg/kg intraperitoneally in mice for the promotional effect on recovery from coma.; conditions: route intraperitoneal
[20] = test system: Mus musculus; assay: Time of recovery of righting reflux (RRT) in seconds was measured after administration of 30 mg/kg intraperitoneally in mice for the promotional effect on recovery from coma.; conditions: route intraperitoneal
[21] = test system: Mus musculus; assay: Time of recovery of spontaneous movement (SMT) in seconds was measured after administration of 30 mg/kg intraperitoneally in mice for the promotional effect on recovery from coma.; conditions: route intraperitoneal
[22] = test system: Mus musculus; assay: Antihypoxic effect by the ratio of survival time (SVT) of test mice to that of control group at a dose of 40 mg/kg administered intraperitoneally.; conditions: route intraperitoneal
[23] = test system: Mus musculus; assay: Time of recovery of spontaneous movement (SMT) in seconds was measured after administration of 40 mg/kg orally in mice for the promotional effect on recovery from coma.; conditions: route oral
[24] = test system: Mus musculus; assay: Compound was tested for the anesthetic effect and the sleeping time (ST) was recorded at a dose of 10 mg/kg administered intraperitoneally.; conditions: route intraperitoneal
[25] = test system: Mus musculus; assay: Antihypoxic effect by the ratio of survival time (SVT) of test mice to that of control group at a dose of 20 mg/kg administered intraperitoneally.; conditions: route intraperitoneal
[26] = test system: Mus musculus; assay: Time of recovery of righting reflux (RRT) in seconds was measured after oral administration of 30 mg/kg in mice for the promotional effect on recovery from coma.
[27] = test system: Mus musculus; assay: Time of recovery of righting reflux (RRT) in seconds was measured after oral administration of 100 mg/kg orally in mice for the promotional effect on recovery from coma.
[28] = test system: Mus musculus; assay: Time of recovery of spontaneous movement (SMT) in seconds was measured after administration of 100 mg/kg orally in mice for the promotional effect on recovery from coma.; conditions: route oral
[29] = test system: Mus musculus; assay: Time of recovery of righting reflux (RRT) in seconds was measured after oral administration of 30 mg/kg orally in mice for the promotional effect on recovery from coma.
[30] = test system: Mus musculus; assay: Spontaneous movement (SMT) in seconds, was measured after oral administration of 30 mg/kg in mice to test for promoting effects on recovery from coma.
[31] = test system: Mus musculus; assay: Time of recovery of righting reflux (RRT) in seconds was measured after oral administration of 10 mg/kg orally in mice for the promotional effect on recovery from coma.
[32] = test system: Mus musculus; assay: Antihypoxic effect tested by the ratio of survival time (SVT) of test mice to that of control group, dosed orally 30 mg/kg; conditions: route oral
[33] = test system: Mus musculus; assay: Compound was tested for the anesthetic effect and the sleeping time (ST) was recorded at a dose of 30 mg/kg administered intraperitoneally.; conditions: route intraperitoneal
[34] = test system: Mus musculus; assay: Antihypoxic effect by the survival time (SVT) in mice at a dose of 3 mg/kg administered intraperitoneally.; conditions: route intraperitoneal
[35] = test system: Mus musculus; assay: Time of recovery of spontaneous movement (SMT) in seconds was measured after administration of 10 mg/kg orally in mice for the promotional effect on recovery from coma.; conditions: route oral
[36] = test system: Mus musculus; assay: Time of recovery of righting reflux (RRT) in seconds was measured after administration of 3 mg/kg orally in mice for the promotional effect on recovery from coma.; conditions: route oral
[37] = test system: Mus musculus; assay: Compound was tested for the anesthetic effect and the sleeping time (ST) was recorded at a dose of 10 mg/kg administered orally.
[38] = test system: Mus musculus; assay: Compound was tested for the anesthetic effect and the sleeping time (ST) was recorded at a dose of 1 mg/kg administered orally.
[39] = test system: Mus musculus; assay: Time of recovery of spontaneous movement (SMT) in seconds was measured after administration of 3 mg/kg orally in mice for the promotional effect on recovery from coma.; conditions: route oral
[40] = test system: Mus musculus; assay: Compound was tested for the anesthetic effect and the sleeping time (ST) was recorded at a dose of 3 mg/kg administered orally.
[41] = test system: Mus musculus; assay: Time of recovery of spontaneous movement (SMT) in seconds was measured after administration of 0.3 mg/kg orally in mice for the promotional effect on recovery from coma.; conditions: route oral
[42] = test system: Mus musculus; assay: Time of recovery of spontaneous movement (SMT) in seconds was measured after administration of 1 mg/kg orally in mice for the promotional effect on recovery from coma.; conditions: route oral
[43] = test system: Mus musculus; assay: Time of recovery of righting reflux (RRT) in seconds was measured after administration of 1 mg/kg orally in mice for the promotional effect on recovery from coma.; conditions: route oral
[44] = test system: Mus musculus; assay: Time of recovery of righting reflux (RRT) in seconds was measured after administration of 0.3 mg/kg orally in mice for the promotional effect on recovery from coma.; conditions: route oral

`NC(=O)[C@@H]1CCCN1C(=O)[C@H](Cc1c[nH]cn1)NC(=O)[C@@H]1CCC(=O)N1` [PROTIRELIN] showed an RRT [1] of 100.1 s, an SMT [2] of 118.2 s and an RRT [3] of 40.8 s. For the same compound, the ST [4] was 70.7 s, the ST [5] was 83.1 s and the ST [6] was 73.2 s. It also gave an RRT [7] of 34.1 s, an SVT [8] of 83.8% and an SMT [9] of 40.9 s. The SVT [10] was 43.4%, the SVT [11] was 43.4% and the SMT [12] was 48.2 s. For the same compound, the SVT [13] was 47.1%.
With `CCCC(C)C1(CC)C(=O)N=C([O-])NC1=O.[Na+]` (centres undefined) [PENTOBARBITAL SODIUM] the RRT [14] was 494 s, the SMT [15] was 176.3 s and the RRT [16] was 494 s. For the same compound, the SMT [17] was 283 s, the SVT [18] was 134.9% and the RRT [19] was 175.5 s. The RRT [20] was 494 s, the SMT [21] was 283 s and the SVT [22] was 306.7% and 443.6%. It also gave an SMT [23] of 283 s, an ST [24] of 133 s and an SVT [25] of 218.5%.
In the case of `Cc1cc(C)c2c(c1O)C(NC(=O)CN1CCN(C)CC1)C(C)(C)C2` (centres undefined), the RRT [26] is reported as 54.9 s, the SVT [18] is reported as 92.5% and the RRT [27] is reported as 25.8 s. For the same compound, the SMT [28] was 36.2 s, the RRT [29] was 45.7 s and the SMT ([30]; 30 mg/kg) was 43.1 s and 49.8 s. For the same compound, the ST [6] was 92.7 s, the RRT [31] was 61.2 s and the SVT [32] was 86.4%. It also gave an ST [24] of 78.8 s, an ST [33] of 84.3 s and an SVT [34] of 93%. The SVT ([11]; 30 mg/kg) was 145.6% and 145.2% and the SMT [35] was 60.9 s.
For `COc1cccc(N2CCN(CC(=O)NC3c4c(O)c(C)cc(C)c4CC3(C)C)CC2)c1` (centres undefined), the RRT [36] was 43.6 s, the RRT [26] was 48.3 s and the ST [37] was 71.4 s. It also gave an ST [38] of 92.7 s, an SVT [18] of 176.4% and an SMT [39] of 45.3 s. It also gave an ST [40] of 84.8 s, an SMT [30] of 46 s and an SMT [41] of 66.5 s. It also gave an SVT [32] of 135.4%, an SMT [42] of 56.2 s and an RRT [43] of 58 s. The SVT [34] was 153.5%, the RRT [44] was 72.7 s and the SVT ([11]; 30 mg/kg) was 169.1% and 206.7%.
